In brackets after ≈: the same amount, converted by molar mass. Structures can show the parent of a compound that is named as a salt. Where two headings read alike, the source gives them in different places.
Key:
[1] = tested on: E. coli (ATCC 35218); assay: microbe, parasite or virus in culture; assay type: cell-based; settings: for MIC80: Escherichia coli, ATCC35218, read-out: MIC80 E. coli, E. coli ATCC 35218; for MIC80 E. coli: E. coli ATCC 35218
Method: (§1) To further characterize the compounds, the minimal inhibitory concentration (MIC80) were determined for selected compounds. MIC80 is defined as the compound concentration at which ≥80% bacterial growth is inhibited compare to untreated controls. Meanwhile, for the selected compounds, cytotoxicity assays (CC50) were performed on a HepG2-derived hepatoblastoma cell line (HEPDES19). […] For CC50 evaluation, soluble tetrazolium dye (MTS) was used to measure mitochondrial toxicity in a human hepatoblastoma cell line (18). The bacteria (E. coli, S. saprophyticus and A. baumannii) used in MIC80 measurements were the same as that in the primary screening, but for Staphylococcus, S. aureus is used primarily because it is a common pathogen in Staphylococcaeae family, while S. saprophyticus is part of the normal human flora.

[2] = tested on: Staphylococcus saprophyticus (ATCC BAA-750); assay: MIC80 on S. saprophyticus; assay type: cell-based; settings: S. saprophyticus ATCC BAA-750, read-out: MIC80 S. sapro
Method: as §1

[3] = tested on: S. aureus (ATCC 29213); assay: MIC80 on S. aureus; assay type: cell-based, Staphylococcus aureus; settings: ≥80% growth inhibition; for MIC80: Staphylococcus aureus, ATCC 29213 / MSSA, read-out: MIC80 S. aureus, S. aureus ATCC 29213 (MSSA); for MIC80 S. aureus: S. aureus ATCC 29213 (MSSA)
Method: as §1

[4] = tested on: S. aureus and/or S. saprophyticus; assay: MIC80 on S. aureus and/or S. saprophyticus; assay type: cell-based; settings: read-out: MIC80 against S. aureus and/or S. saprophyticus
Method: as §1, with “(HEPDES19). […] For the MIC80 measurements, a 1.5 fold dilution series of the compounds was prepared in Mueller-Hinton II broth.” for “(HEPDES19).”, “flora. S. aureus (ATCC 29213) is methicillin-sensitive Staphylococcus aureus (MSSA) strain and it was used as a model strain to measure the MIC80.” for “flora.”

[5] = Cytotoxicity assay (CC50), MTS; assay type: cell-based, human; settings: human, HepG2-derived hepatoblastoma cell line (HEPDES19), HEPDES19 cells
Method: as §1

[6] = tested on: HepG2-derived hepatoblastoma cell line (HEPDES19); assay: Cytotoxicity assay (CC50), MTS; assay type: cell-based, human; settings: HEPDES19 cells
Method: as §1

[7] = Staphylococcus saprophyticus, ATCCBAA750

Structure (SMILES) | MIC80 [1] [µM] | MIC80 [2, 7] [µM] | MIC80 [3] [µM] | MIC80 [4] [µM] | CC50 [5] [µM] | CC50 [6] [µM] | MIC80 E. coli [1] [µM] | MIC80 [2] [µM] | MIC80 S. aureus [3] [µM]
O=c1ccc2ccccc2n1O [Compound 43] | 111 (≈ 17.9 µg/mL) | 11.4 (≈ 1.84 µg/mL) | 13.2 (≈ 2.13 µg/mL) | < 20 | > 50 | ≥ 100 | – | – | –
O=C(Oc1cccccc1=O)c1ccc([N+](=O)[O-])cc1 [Compound 51] | 167 (≈ 45.2 µg/mL) | 15.1 (≈ 4.1 µg/mL) | 16.5 (≈ 4.48 µg/mL) | < 20 | > 50 | 56 | – | – | –
O=c1cccccc1O [Compound 53] | – | – | – | – | – | ≥ 100 | >100 | 8.8 (≈ 1.07 µg/mL) | 11.7 (≈ 1.43 µg/mL)
CC(C)C(CO)n1cc(C(=O)O)c(=O)c2cc(Cc3cccc(Cl)c3F)c(F)cc21 (centres unmarked) [Compound 75] | – | – | – | – | – | 28 | 100 (≈ 43.6 µg/mL) | 15.1 (≈ 6.58 µg/mL) | 8.8 (≈ 3.84 µg/mL)
Cc1cc(O)c(=O)c(O)cc1-c1ccc(Br)cc1 [Compound 114] | – | – | 19.8 (≈ 6.08 µg/mL) | < 20 | < 50 | 38 | – | – | –
CC1=C(C#N)C(O)=NC(=O)/C1=C\c1ccc(-c2ccccc2)o1 [Compound 140] | > 100 | 12.7 (≈ 3.86 µg/mL) | 3.9 (≈ 1.19 µg/mL) | < 20 | < 50 | 42 | – | – | –
O=c1cc(Cc2ccc(Br)cc2)c2cccnc2n1O [Compound 149, 4-[(4-bromophenyl)methyl]-1-hydroxy-1,8-naphthyridin-2-one hydrobromide] | > 100 | 2.5 | – | – | – | – | – | – | –
O=c1cc(-c2ccccc2)c2cccnc2n1O [Compound 154, 1-hydroxy-4-phenyl-1,8-naphthyridin-2-one] | < 30 | 17.8 (≈ 4.24 µg/mL) | – | < 20 | 4 | – | 21.9 (≈ 5.22 µg/mL) | – | –
O=C(Oc1cccccc1=O)c1cccc(Cl)c1 [Compound 282] | > 100 | – | 18.2 (≈ 4.74 µg/mL) | < 20 | > 50 | – | – | – | –

— US12502362B2, “Inhibitors of nucleotidyltransferase superfamily enzymes as antibiotics” (priority 2017, dated 2025)
